In US20210102200A1, “SMALL MOLECULE TARGETED RECRUITMENT OF A NUCLEASE TO RNA” (The Scripps Research Institute, priority 2018, published 2021):
pKd: −log10 of the molar value. “Also recorded” adds a separate entry of the source.

Key:
[1] = molecular target: pri-miR-96's Drosha site; details: parent compound, pri-miR-96 Drosha site; cited from earlier work
[2] = system: pri-miR-96; test: In vitro cleavage of pri-miR-96 by RNase L (fluorescence-based and gel mapping); assay type: biochemical; details: in vitro competition
Excerpt: Determination of RNA cleavage by fluorescence: A model RNase L substrate RNA1 labeled with a 5′ 6-Fluorescein and 3′ Iowa Black® FQ (5′-6FAM-UUAUCAAAU […] 3′ (SEQ ID NO: 1)—Iowa Black® FQ: RNA 1) was purchased from Integrated DNA Technologies, Inc. (IDT), which also HPLC purified the oligonucleotide. A model of pri-miR-96 RNA labeled with 5′ 6-Fluorescein and 3′ Quencher (IQ4, structure undisclosed) (5′-6FAM […] […] 3′ (SEQ ID NO: 2)—IQ4: RNA 2) was purchased from and HPLC purified by Chemgenes. Solutions of RNA 1 or RNA 2 were folded at 70° C. for 5 min and cooled to room temperature in RNase L Buffer without MgCl2, β-mercaptoethanol or ATP. After cooling, the RNA was supplemented with 10 mM MgCl2, fresh 7 mM β-mercaptoethanol, and 50 μM of ATP. […] Fluorescence intensity (Ex: 485 nm, Em: 528 nm) was measured on a BioTek FLx800 plate reader. Relative Fluorescence Enhancement was calculated by normalizing the fluorescent signal of treated RNA samples to the fluorescent signal of untreated RNA samples. Percentage RNA Cleavage was calculated by normalizing sample fluorescent signals relative to the maximum fluorescent signal, set as 100%. […] Normalized RNA Cleavage was calculated by normalizing sample fluorescent signals relative to the maximum fluorescent signal (compound with no tRNA), set as 1. […]

[3] = system: mature miR-96; test: Mature miR-96 levels in cells by RT-qPCR; assay type: cell-based; details: MDA-MB-231 cells
Protocol: (§1) Cell culture: All cells were maintained at 37° C. with 5% CO2. MDA-MB-231 (HTB-26, ATCC) cells were cultured in RPMI 1640 medium with L-glutamine & 25 mM HEPES (Corning) supplemented with 10% FBS (Sigma) and 1×Antibiotic-Antimycotic (Corning). A549 (CCL-185, ATCC), HeLa (CCL-2, ATCC), and MCF7 (HTB-22, ATCC) cells were cultured in DMEM medium with 4.5 g/L glucose (Corning), supplemented with 10% FBS (Sigma), 1×Glutagro (Corning), and 1×Antibiotic-Antimycotic (Corning). MCF10a (CRL-10317, ATCC) cells were cultured in DMEM/F12 50/50 with L-glutamine & 15 mM HEPES (Corning), supplemented with 10% FBS (Sigma), 20 ng/mL human epidermal growth factor (Pepro Tech Inc.), […] hydrocortisone (Pfaltz & Bauer), 100 ng/mL cholera toxin (Sigma-Alrich), 10 μg/mL insulin (Sigma-Aldrich), and 1×Antibiotic-Antimycotic (Corning). […]
(§2) RNA isolation and RT-qPCR: Total RNA was extracted from untreated and treated cells by using a Quick-RNA MiniPrep (Zymo Research) per the manufacturer's protocol. […] RNA expression levels were determined using the ΔΔCt method and normalized with U6 small nuclear RNA as a housekeeping gene. Upon treatment with chimeric compound 2, relative cleavage levels were calculated according to equation 2 (Eq. 2) in order to control for the effect of parent compound 1a, on pri-miR-96 expression: […]

[4] = system: pri-miR-96; test: pri-miR-96 levels / cleavage in cells by RT-qPCR; assay type: cell-based
Protocol: as §1, §2

Substance: Targaprimir-96 [Compound 1a]
- pKd [1]: 7.70
- Cleavage at U12 by 2 upon addition of the parent compound [2]: inhibited
- mature miR-96 levels [3]: reduced
- pri-miR-96 levels ([4]; MDA-MB-231 cells, RT-qPCR): increased; also recorded: boosted
- 2-mediated pri-miR-96 cleavage upon co-treatment with 1a ([4]; constant concentration of 2, increasing concentrations of 1a): decreased pri-miR-96 cleavage levels in a dose dependent fashion; also recorded: reduced
